According to patent publication US8524712B2, “Triazinone and diazinone derivatives useful as HSP90 inhibitors” (Synta Pharmaceuticals Corp., priority 2007, dated 2013):

The compounds below were run on MV-4-11 cells (assay: IC50 of Table 2: Method 2, MV-4-11 cell survival (Cell Counting Kit-8), reported as Her2 degradation / inhibition of Hsp90). Conditions: Homo sapiens, MV4-11, 72 hours at 37° C., text calls it Her2 degradation, table title inhibition of Hsp90.
Assay type: cell-based
Experimental: MV-4-11 cells (20,000 cells/well) were cultured in 96-well plates and maintained at 37° C. for several hours. The cells were treated with a compound of the invention or 17AAG (a positive control) at various concentrations and incubated at 37° C. for 72 hours. Cell survival was measured with Cell Counting Kit-8 (Dojindo Laboratories, Cat. #CK04).

Question: For `CCOC(=O)C1=C(C)NC(=O)NC1c1cc(C(C)C)c(O)cc1O` (stereo not drawn) [Compound 1, ethyl 4-(2,4-dihydroxy-5-isopropylphenyl)-6-methyl-2-oxo-1,2,3,4-tetrahydropyrimidine-5-carboxylate], which IC50 is on record?
Answer: > 100 µM

Question: For `CCN1CC2=C(C1=O)C(c1cc(C(C)C)c(O)cc1O)NC(=O)N2` (stereo not drawn) [Compound 2, 4-(2,4-dihydroxy-5-isopropylphenyl)-6-ethyl-3,4,6,7-tetrahydro-1H-pyrrolo[3,4-d]pyrimidine-2,5-dione], which IC50 is on record?
Answer: > 100 µM

Question: For `CC(C)c1cc(C2=NNC(=O)CN2c2ccc(N(C)C)cc2)c(O)cc1O` [Compound 7, 3-(2,4-dihydroxy-5-isopropylphenyl)-4-(4-(dimethylamino)phenyl)-4,5-dihydro-1,2,4-triazin-6(1H)-one], which IC50 is on record?
Answer: > 50 µM

Question: For `COc1ccc(CN2CC(=O)NN=C2c2cc(C(C)C)c(O)cc2O)cc1` [Compound 8, 3-(2,4-dihydroxy-5-isopropylphenyl)-4-(4-methoxybenzyl)-4,5-dihydro-1,2,4-triazin-6(1H)-one], which IC50 is on record?
Answer: > 50 µM

Question: Which IC50 does the source give for `CC(C)c1cc(C2=NNC(=O)CN2Cc2ccc3c(c2)OCO3)c(O)cc1O` [Compound 5, 4-(benzo[d][1,3]dioxol-5-ylmethyl)-3-(2,4-dihydroxy-5-isopropylphenyl)-4,5-dihydro-1,2,4-triazin-6(1H)-one] here?
Answer: 38.4 µM

Question: `CC(C)c1cc(C2NC(=O)NC3=C2C(=O)OC3)c(O)cc1O` (stereo not drawn) [Compound 3, 4-(2,4-dihydroxy-5-isopropylphenyl)-3,4-dihydrofuro[3,4-d]pyrimidine-2,5(1H,7H)-dione] was tested. Which IC50 did it give?
Answer: > 500 µM

Question: With `CC(C)c1cc(C2=NNC(=O)CN2c2ccc3c(ccn3C)c2)c(O)cc1O` [Compound 4, 3-(2,4-dihydroxy-5-isopropylphenyl)-4-(1-methyl-1H-indol-5-yl)-4,5-dihydro-1,2,4-triazin-6(1H)-one] as the compound, how does the IC50 read?
Answer: > 50 µM

Question: How did the IC50 turn out when `CC(C)c1cc(C2=NNC(=O)CN2c2ccc(N3CCOCC3)cc2)c(O)cc1O` [Compound 6, 3-(2,4-dihydroxy-5-isopropylphenyl)-4-(4-morpholinophenyl)-4,5-dihydro-1,2,4-triazin-6(1H)-one] was run?
Answer: > 50 µM

The compounds below were run on Her2 (assay: Degradation of Her2 in BT-474 cells, Method 1 (Western blot)). Conditions: 0.5 μM, overnight.
Assay type: cell-based, human
Experimental: Human high-Her2 breast carcinoma BT474 (HTB-20), SK-BR-3 (HTB-30) and MCF-7 breast carcinoma (HTB-22) from American Type Culture Collection, VA, USA were grown in Dulbecco's modified Eagle's medium with 4 mM L-glutamine and antibiotics (100 IU/ml penicillin and 100 ug/ml streptomycine; GibcoBRL). To obtain exponential cell growth, cells were trypsinized, counted and seeded at a cell density of 0.5×10^6 cells/ml regularly, every 3 days. All experiments were performed on day 1 after cell passage.
BT-474 cells are treated with 0.5 μM, 2 μM, or 5 μM of 17AAG (a positive control) or 0.5 μM, 2 μM, or 5 μM of a compound of the invention overnight in DMEM medium. After treatment, each cytoplasmic sample is prepared from 1×10^6 cells by incubation of cell lysis buffer (#9803, cell Signaling Technology) on ice for 10 minutes. The resulting supernatant used as the cytosol fractions is dissolved with sample buffer for SDS-PAGE and run on a SDS-PAGE gel, blotted onto a nitrocellulose membrane by using semi-dry transfer. Non-specific binding to nitrocellulose is blocked with 5% skim milk in TBS with 0.5% Tween at room temperature for 1 hour, then probed with anti-Her2/ErB2 mAb (rabbit IgG, #2242, Cell Signaling) and anti-Tubulin (T9026, Sigma) as housekeeping control protein. […]

Question: For `C=CCNC1=C2C[C@@H](C)C[C@H](OC)[C@H](O)[C@@H](C)/C=C(\C)[C@H](OC(N)=O)[C@@H](OC)/C=C\C=C(/C)C(=O)NC(=CC1=O)C2=O` [Compound 17AAG, 17-allylamino-17-demethoxygeldanamycin], which “degradation of Her2” value is on record?
Answer: partial degradation
